Patent US9975861B2, “Dual inhibitor compounds for use in the treatment of neurodegenerative disorders and alzheimer's disease” (FONDAZIONE ISTITUTO ITALIANO DI TECNOLOGIA, priority 2014, dated 2018)

Key:
[1] = test system: neurosphere cultures of primary rat neural stem cells; assay: Neurosphere cultures, immunocytochemistry for neural markers; type: cell-based; conditions: 10 μM during a week; compared to control (FIG. 3)
Description: Neurosphere (NS) cultures were derived from the hippocampus of adult rats and induced to proliferate using established passaging methods to achieve optimal cellular expansion according to published protocols [Ferron, S. R.; Andreu-Agullo, C.; Mira, H.; Sanchez, P.; Marques-Torrejon, M. A.; Farinas, I. A combined ex/in vivo assay to detect effects of exogenously added factors in neural stem cells. Nature Protoc. 2007, 2, 849-859]. Rats were decapitated, brains removed, and the hippocampus dissected as described [Morales-Garcia, J. A.; Luna-Medina, R.; Alfaro-Cervello, C.; Cortes-Canteli, M.; Santos, A.; Garcia-Verdugo, J. M.; Perez-Castillo, A. Peroxisome proliferator-activated receptor gamma ligands regulate neural stem cell proliferation and differentiation in vitro and in vivo. Glia 2011, 59, 293-307]. Briefly, cells were seeded into 12-well dishes and cultured in DMEM/F12 (1:1, Invitrogen) containing 10 ng/mL epidermal growth factor (EGF, Peprotech, London, UK), 10 ng/mL fibroblast growth factor (FGF, Peprotech), and B27 medium (Gibco). After 3 days in culture, NS were cultivated in the presence or absence of the indicated compounds (10 μM) during a week. After that, NS from 10-day old cultures were plated for 72 hours onto 100 μg/mL poly-L-lysine-coated coverslips in the absence of exogenous growth factors.
Neurogenesis is a crucial property for new AD-modifying drugs, since it confers the potential to increase endogenous regeneration as a repair mechanism in the damaged brain, and reduce neuronal loss and degeneration. Considering that GSK-3β inhibition is reported to regulate and increase neurogenesis [Lange, C.; Mix, E.; Frahm, J.; Glass, A.; Muller, J.; Schmitt, O.; Schmole, A. C.; Klemm, K.; Ortinau, S.; Hubner, R.; Frech, M. J.; Wree, A.; Rolfs, A. Small molecule GSK-3 inhibitors increase neurogenesis of human neural progenitor cells. Neurosci. […]

[2] = test system: triggering receptor expressed on myeloid cells 2 (TREM2); assay: Western blot analysis of TREM2 (M2 marker) in LPS-treated microglia cells; type: cell-based, rat; conditions: LPS 100 ng/mL, 24 hours co-treatment; microglia cells (FIG. 5c)
Description: Mixed glial cell cultures were prepared from cerebral cortex of newborn Wistar rats (Rattus norvegicus), as previously described [Monti, B.; D'Alessandro, C.; Farini, V.; Bolognesi, A.; Polazzi, E.; Contestabile, A.; Stirpe, F.; Battelli, M. G. In vitro and in vivo toxicity of type 2 ribosome-inactivating proteins lanceolin and stenodactylin on glial and neuronal cells. Neurotoxicology 2007, 28, 637-644]. Briefly, brain tissue was cleaned from meninges, trypsinized for 15 minutes at 37° C. and, after mechanical dissociation, the cell suspension was washed and plated on poly-L-lysine (Sigma-Aldrich, St. Louis, Mo., USA, 10 μg/mL) coated flasks (75 cm^2). Mixed glial cells were cultured for 10-13 days in Basal Medium Eagle (BME, Life technologies Ltd, Paisley, UK) supplemented with 100 mL/L heat-inactivated FBS (Life technologies), 2 mmol/L glutamine (Sigma-Aldrich) and 100 μmol/L gentamicin sulfate (Sigma-Aldrich).
Microglial cells were harvested from mixed glial cell cultures by mechanical shaking, resuspended in fresh medium without serum and plated on uncoated 35 mm Ø dishes at a density of 1.5×10^6 cells/1.5 mL medium/well for western blot analysis or on 96 wells at 1×10^5 cells/0.2 mL medium/well for MTT assay. […]
J. Biol. Chem. 1951, 193, 265-275]. […] Labelled proteins were detected by using the enhanced chemiluminescence method (ECL; Bio-RAD). […]

Compound | number of β-tubulin positive cells (immature neuronal marker) [1] | TREM2 expression reduced by LPS [2] | number of MAP-2 positive cells (mature neuronal marker) [1]
CCNC1=NC(c2ccc(F)cc2)NC(=O)N1 (racemic) [Example 3, 6-(ethylamino)-4-(4-fluorophenyl)-3,4-dihydro-1,3,5-triazin-2(1H)-one] | significantly increased | restored | –
CCCNC1=NC(c2ccc(F)cc2)NC(=O)N1 (stereo not shown) [Example 6, 4-(4-fluorophenyl)-6-(propylamino)-3,4-dihydro-1,3,5-triazin-2(1H)-one] | – | restored | significantly amplified
